The numbers were not newly measured in patent US9034798B2, “Capture compounds, collections thereof and methods for analyzing the proteome and complex compositions” (CAPROTEC BIOANALYTICS GMBH, priority 2003, dated 2015), which cites them from elsewhere.

The conditions of this data set: for drug-induced hepatotoxicity: clinical studies; for heart failure: six male patients with poor heart and kidney function; for deaths: reported before withdrawal from the market.

Take `CCc1ccc(CCOc2ccc(CC3SC(=O)NC3=O)cc2)nc1` (stereo not drawn) [Actos, Pioglitazone]: the drug-induced hepatotoxicity result was “no evidence of drug-induced hepatotoxicity” and the heart failure entry is “caused heart failure”. Consider `CN(CCOc1ccc(CC2SC(=O)NC2=O)cc1)c1ccccn1` (stereo not drawn) [Avandia, Rosiglitazone], for which the drug-induced hepatotoxicity result is “no evidence of drug-induced hepatotoxicity” and the heart failure result is “caused heart failure”. As for `COCc1c(C(C)C)nc(C(C)C)c(/C=C/[C@@H](O)C[C@@H](O)CC(=O)O)c1-c1ccc(F)cc1` [Baycol, cerivastatin sodium], the deaths is 31 deaths.

With `Cc1c(C)c2c(c(C)c1O)CCC(C)(COc1ccc(CC3SC(=O)NC3=O)cc1)O2` (stereo not drawn) [Rezulin, Troglitazone], the deaths is 398 deaths.
